Experimental findings from US20230114728A1 (Venatorx Pharmaceuticals, Inc., priority 2019, published 2023) are described below.

The target in this assay is T1, E. coli K12 PBP3 (Escherichia coli, UniProt P0AD68).
T1 construct: made in house
As to the kind of experiment: biochemical. The format is binding. Put shortly:
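Fluorescence polarization (ex 490/em 520 nm) competition of inhibitors against Bocillin-FL at 0.1 μM, read up to 60 min. Final PBP levels: E. coli PBP3 1.5 μM; A. baumannii PBP2 2.5 μM, PBP3 0.2 μM in Tris pH 8.0/NaCl/glycerol/Tween 20; N. gonorrhoeae PBP2 […] in Hepes pH 8.0/NaCl/glycerol. EC50 = concentration halving PBP-bound Bocillin-FL.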

T1 sequence (P0AD68 1-577): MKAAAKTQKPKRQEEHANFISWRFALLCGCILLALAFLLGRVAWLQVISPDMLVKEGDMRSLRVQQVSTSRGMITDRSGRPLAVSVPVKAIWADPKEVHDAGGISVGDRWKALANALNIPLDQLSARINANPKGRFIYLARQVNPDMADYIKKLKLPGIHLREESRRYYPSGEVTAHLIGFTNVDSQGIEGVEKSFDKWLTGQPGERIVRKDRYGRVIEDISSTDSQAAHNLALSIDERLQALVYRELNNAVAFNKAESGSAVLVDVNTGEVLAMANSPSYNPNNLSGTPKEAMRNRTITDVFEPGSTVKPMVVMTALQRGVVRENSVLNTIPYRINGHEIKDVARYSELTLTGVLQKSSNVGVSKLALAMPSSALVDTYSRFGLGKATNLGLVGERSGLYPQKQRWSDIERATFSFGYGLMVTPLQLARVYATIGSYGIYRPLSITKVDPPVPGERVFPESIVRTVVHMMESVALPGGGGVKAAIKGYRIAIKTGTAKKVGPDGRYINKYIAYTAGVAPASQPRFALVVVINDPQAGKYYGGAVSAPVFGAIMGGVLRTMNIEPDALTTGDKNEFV

The term EC50 denotes the concentration that produces a half-maximal response. Higher therefore signals a less potent agent. Turning to `O=C(O)c1cccc2c1OB(O)[C@@H](NC(=O)C(NC(=O)N1CCN(CCF)C(=O)C1=O)c1c(F)cc(O)cc1F)C2` (mixture of isomers) [Example 119, (3R)-3-(2-(2,6-difluoro-4-hydroxyphenyl)-2-(4-(2-fluoroethyl)-2,3-dioxopiperazine-1-carboxamido)acetamido)-2-hydroxy-3,4-dihydro-2H-benzo[e][1,2]oxaborinine-8-carboxylic acid], the half-maximal effective concentration (EC50) was less than 30 µM. For `NCCN1CCN(C(=O)N[C@H](C(=O)N[C@H]2Cc3cccc(C(=O)O)c3OB2O)c2c(F)cc(O)cc2F)C(=O)C1=O` (single isomer, unassigned) [Example 110] the value was 30 to 500 µM; for `NCCN1CCN(C(=O)N[C@@H](C(=O)N[C@H]2Cc3cccc(C(=O)O)c3OB2O)c2c(F)cc(O)cc2F)C(=O)C1=O` (single isomer, unassigned) [Example 111], less than 30 µM; for `NCCN1CCN(C(=O)N[C@@H](C(=O)N[C@H]2Cc3cccc(C(=O)O)c3OB2O)c2cccc(NS(N)(=O)=O)c2)C(=O)C1=O` (single isomer, unassigned) [Example 114], 30 to 500 µM.

In turn, `NCCN1CCN(C(=O)N[C@H](C(=O)N[C@H]2Cc3cccc(C(=O)O)c3OB2O)c2cccc(NS(N)(=O)=O)c2)C(=O)C1=O` (single isomer, unassigned) [Example 115] showed an EC50 of 30 to 500 µM. `NC1(CN2CCN(C(=O)N[C@@H](C(=O)N[C@H]3Cc4cccc(C(=O)O)c4OB3O)c3c(F)cc(O)cc3F)C(=O)C2=O)CC1` (single isomer, unassigned) [Example 121] came in with an EC50 of less than 30 µM. For `NC1(CN2CCN(C(=O)N[C@H](C(=O)N[C@H]3Cc4cccc(C(=O)O)c4OB3O)c3c(F)cc(O)cc3F)C(=O)C2=O)CC1` (single isomer, unassigned) [Example 122] the value was less than 30 µM; for `O=C(O)c1cccc2c1OB(O)[C@@H](NC(=O)[C@H](NC(=O)N1CCN(CCF)C(=O)C1=O)c1c(F)cc(O)cc1F)C2` (single isomer, unassigned) [Example 126], less than 30 µM; for `NCCN1CCN(C(=O)N[C@@H](C(=O)N[C@H]2Cc3ccc(F)c(C(=O)O)c3OB2O)c2c(F)cc(O)cc2F)C(=O)C1=O` (single isomer, unassigned) [Example 127], less than 30 µM. Consider `NCCN1CCN(C(=O)N[C@H](C(=O)N[C@H]2Cc3ccc(F)c(C(=O)O)c3OB2O)c2c(F)cc(O)cc2F)C(=O)C1=O` (single isomer, unassigned) [Example 128], for which the EC50 fell in the range of 30 to 500 µM. The compound `CS(=O)(=O)N1CCN(C(=O)N[C@@H](C(=O)N[C@H]2Cc3cccc(C(=O)O)c3OB2O)c2c(F)cc(O)cc2F)C1=O` (single isomer, unassigned) [Example 135] gave an EC50 of less than 30 µM. Compound `CS(=O)(=O)N1CCN(C(=O)N[C@H](C(=O)N[C@H]2Cc3cccc(C(=O)O)c3OB2O)c2c(F)cc(O)cc2F)C1=O` (single isomer, unassigned) [Example 136] had an EC50 of 30 to 500 µM. For `CCN1CCN(C(=O)N[C@H](C(=O)N[C@H]2Cc3cccc(C(=O)O)c3OB2O)c2ccc(C(=O)O)cc2O)C(=O)C1=O` (single isomer, unassigned) [Example 143], the EC50 is less than 30 µM. Take `CCN1CCN(C(=O)N[C@@H](C(=O)N[C@H]2Cc3cccc(C(=O)O)c3OB2O)c2ccc(C(=O)O)cc2O)C(=O)C1=O` (single isomer, unassigned) [Example 144]: the EC50 is less than 30 µM. The compound `NCCN1CCN(C(=O)N[C@H](C(=O)N[C@H]2Cc3cccc(C(=O)O)c3OB2O)c2cc(F)c(O)c(F)c2)C(=O)C1=O` (single isomer, unassigned) [Example 158] had an EC50 of 30 to 500 µM.

The compound `NCCN1CCN(C(=O)N[C@H](C(=O)N[C@H]2Cc3cccc(C(=O)O)c3OB2O)c2cc(Cl)c(O)c(Cl)c2)C(=O)C1=O` (single isomer, unassigned) [Example 165] registered an EC50 of 30 to 500 µM. The result for `NCCN1CCN(C(=O)N[C@@H](C(=O)N[C@H]2Cc3cccc(C(=O)O)c3OB2O)c2cc(Cl)c(O)c(Cl)c2)C(=O)C1=O` (single isomer, unassigned) [Example 166] reads less than 30 µM; that for `NCCN1CCN(C(=O)N[C@H](C(=O)N[C@H]2Cc3cccc(C(=O)O)c3OB2O)c2cc(F)c(O)c(F)c2F)C(=O)C1=O` (single isomer, unassigned) [Example 167], 30 to 500 µM.

`NCCN1CCN(C(=O)N[C@H](C(=O)N[C@H]2Cc3cccc(C(=O)O)c3OB2O)c2ccc(O)c(F)c2F)C(=O)C1=O` (single isomer, unassigned) [Example 169] gave an EC50 of 30 to 500 µM. The result for `NCCN1CCN(C(=O)N[C@@H](C(=O)N[C@H]2Cc3cccc(C(=O)O)c3OB2O)c2ccc(O)c(F)c2F)C(=O)C1=O` (single isomer, unassigned) [Example 170] reads less than 30 µM; that for `NS(=O)(=O)c1cccc(C(NC(=O)N2CCN(CCF)C(=O)C2=O)C(=O)N[C@H]2Cc3cccc(C(=O)O)c3OB2O)c1` (stereo partly drawn) [Example 100, (3R)-3-(2-(4-(2-fluoroethyl)-2,3-dioxopiperazine-1-carboxamido)-2-(3-sulfamoylphenyl)acetamido)-2-hydroxy-3,4-dihydro-2H-benzo[e][1,2]oxaborinine-8-carboxylic acid], 30 to 500 µM; that for `CCN1CCN(C(=O)NC(C(=O)N[C@H]2Cc3cccc(C(=O)O)c3OB2O)c2cc(Cl)c(O)cc2F)C(=O)C1=O` (stereo partly drawn) [Example 101, (3R)-3-(2-(5-chloro-2-fluoro-4-hydroxyphenyl)-2-(4-ethyl-2,3-dioxopiperazine-1-carboxamido)acetamido)-2-hydroxy-3,4-dihydro-2H-benzo[e][1,2]oxaborinine-8-carboxylic acid], less than 30 µM. In turn, `CCN1CCN(C(=O)NC(C(=O)N[C@H]2Cc3cccc(C(=O)O)c3OB2O)c2cc(F)c(O)cc2Cl)C(=O)C1=O` (stereo partly drawn) [Example 103, (3R)-3-(2-(2-chloro-5-fluoro-4-hydroxyphenyl)-2-(4-ethyl-2,3-dioxopiperazine-1-carboxamido)acetamido)-2-hydroxy-3,4-dihydro-2H-benzo[e][1,2]oxaborinine-8-carboxylic acid] returned an EC50 of less than 30 µM. `CCN1CCN(C(=O)NC(C(=O)N[C@H]2Cc3cccc(C(=O)O)c3OB2O)c2cc(F)c(O)cc2F)C(=O)C1=O` (stereo partly drawn) [Example 104, (3R)-3-(2-(2,5-difluoro-4-hydroxyphenyl)-2-(4-ethyl-2,3-dioxopiperazine-1-carboxamido)acetamido)-2-hydroxy-3,4-dihydro-2H-benzo[e][1,2]oxaborinine-8-carboxylic acid] came in with an EC50 of less than 30 µM.

`CCN1CCN(C(=O)NC(C(=O)N[C@H]2Cc3cccc(C(=O)O)c3OB2O)c2c(F)cc(O)cc2F)C(=O)C1=O` (stereo partly drawn) [Example 105, (3R)-3-(2-(2,6-difluoro-4-hydroxyphenyl)-2-(4-ethyl-2,3-dioxopiperazine-1-carboxamido)acetamido)-2-hydroxy-3,4-dihydro-2H-benzo[e][1,2]oxaborinine-8-carboxylic acid] had an EC50 of less than 30 µM. As to `CCN1CCN(C(=O)NC(C(=O)N[C@H]2Cc3cccc(C(=O)O)c3OB2O)c2c(F)c(O)cc(O)c2F)C(=O)C1=O` (stereo partly drawn) [Example 106, (3R)-3-(2-(2,6-difluoro-3,5-dihydroxyphenyl)-2-(4-ethyl-2,3-dioxopiperazine-1-carboxamido)acetamido)-2-hydroxy-3,4-dihydro-2H-benzo[e][1,2]oxaborinine-8-carboxylic acid], the EC50 fell in the range of 30 to 500 µM. The compound `CCN1CCN(C(=O)NC(C(=O)N[C@H]2Cc3cccc(C(=O)O)c3OB2O)c2cccc(CNS(N)(=O)=O)c2)C(=O)C1=O` (stereo partly drawn) [Example 107, (3R)-3-(2-(4-ethyl-2,3-dioxopiperazine-1-carboxamido)-2-(3-((sulfamoylamino)methyl)phenyl)acetamido)-2-hydroxy-3,4-dihydro-2H-benzo[e][1,2]oxaborinine-8-carboxylic acid] showed an EC50 of 30 to 500 µM.

For `CCN1CCN(C(=O)NC(C(=O)N[C@H]2Cc3cccc(C(=O)O)c3OB2O)c2cccc(CN)c2)C(=O)C1=O` (stereo partly drawn) [Example 108, (3R)-3-(2-(3-(aminomethyl)phenyl)-2-(4-ethyl-2,3-dioxopiperazine-1-carboxamido)acetamido)-2-hydroxy-3,4-dihydro-2H-benzo[e][1,2]oxaborinine-8-carboxylic acid], the EC50 was in the range of 30 to 500 µM. `NCCN1CCN(C(=O)NC(C(=O)N[C@H]2Cc3cccc(C(=O)O)c3OB2O)c2cc(F)c(O)cc2Cl)C(=O)C1=O` (stereo partly drawn) [Example 109, (3R)-3-(2-(4-(2-aminoethyl)-2,3-dioxopiperazine-1-carboxamido)-2-(2-chloro-5-fluoro-4-hydroxyphenyl)acetamido)-2-hydroxy-3,4-dihydro-2H-benzo[e][1,2]oxaborinine-8-carboxylic acid]: the EC50 is less than 30 µM. `CCN1CCN(C(=O)NC(C(=O)N[C@H]2Cc3cccc(C(=O)O)c3OB2O)c2cncc(O)c2)C(=O)C1=O` (stereo partly drawn) [Example 112, (3R)-3-(2-(4-ethyl-2,3-dioxopiperazine-1-carboxamido)-2-(5-hydroxypyridin-3-yl)acetamido)-2-hydroxy-3,4-dihydro-2H-benzo[e][1,2]oxaborinine-8-carboxylic acid] showed an EC50 of 30 to 500 µM. Consider `NS(=O)(=O)Nc1cccc(C(NC(=O)N2CCN(CCF)C(=O)C2=O)C(=O)N[C@H]2Cc3cccc(C(=O)O)c3OB2O)c1` (stereo partly drawn) [Example 116, (3R)-3-(2-(4-(2-fluoroethyl)-2,3-dioxopiperazine-1-carboxamido)-2-(3-(sulfamoylamino)phenyl)acetamido)-2-hydroxy-3,4-dihydro-2H-benzo[e][1,2]oxaborinine-8-carboxylic acid], for which the EC50 is less than 30 µM.

As to `NCCCN1CCN(C(=O)N[C@@H](C(=O)N[C@H]2Cc3cccc(C(=O)O)c3OB2O)c2cccc(NS(N)(=O)=O)c2)C(=O)C1=O` [Example 117, (R)-3-((R)-2-(4-(3-aminopropyl)-2,3-dioxopiperazine-1-carboxamido)-2-(3-(sulfamoylamino)phenyl)acetamido)-2-hydroxy-3,4-dihydro-2H-benzo[e][1,2]oxaborinine-8-carboxylic acid], the EC50 lay in the range of 30 to 500 µM.
